Assay results reported in PMC9310613, “Selenocarbamates As a Prodrug‐Based Approach to Carbonic Anhydrase Inhibition” (Chemmedchem, 2022).
Read-outs that look alike come from different tables or passages of the source.

Experiments:
Experiment in all cases: stopped-flow CO2 hydration assay
Format in all cases: biochemical
hCA I = target: T1, hCA I (Homo sapiens, UniProt P00915)
T1 construct: gene CA1; recombinant, obtained in house
Source text: stopped-flow CO2 hydration assay on hCA I

hCA II [1] = target: T2, hCA II (Homo sapiens, UniProt P00918)
T2 construct: gene CA2; recombinant, obtained in house
Source text: stopped-flow CO2 hydration assay on hCA II

hCA II [2] = target: T2, hCA II; settings: read-out: hCA I

T1 sequence (P00915 2-261): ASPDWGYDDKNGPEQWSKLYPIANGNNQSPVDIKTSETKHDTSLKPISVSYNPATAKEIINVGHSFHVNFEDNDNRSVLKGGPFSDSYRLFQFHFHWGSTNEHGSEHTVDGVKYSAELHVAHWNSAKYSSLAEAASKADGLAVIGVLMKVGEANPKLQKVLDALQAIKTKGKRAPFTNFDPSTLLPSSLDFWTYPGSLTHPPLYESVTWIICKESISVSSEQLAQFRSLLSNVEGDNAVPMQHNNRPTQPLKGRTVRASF

Row | Ki (hCA I) | Ki (hCA II [1]) | Ki (hCA II [2]) | Compound
1 | 67.5 µM | 79.3 µM |  | C=CCOCC(O)C[Se]C(=O)Nc1cc(C)cc(C)c1 (racemic) [3q, 3 q]
2 | 92.7 µM | 79.4 µM |  | CC(C)OCC(O)C[Se]C(=O)NC12CC3CC(CC(C3)C1)C2 (racemic) [3r, 3 r]
3 | 74.3 µM | 84.6 µM |  | Cc1cc(C)cc(NC(=O)[Se][C@@H]2CCCC[C@H]2O)c1 (relative stereo) [3s, 3 s]
4 | 67.4 µM | 83.4 µM |  | O=C(NCc1ccco1)[Se][C@@H]1CCCC[C@H]1O (relative stereo) [3t, 3 t]
5 | 40.4 µM | 4.1 µM |  | O=C(Nc1ccccc1)[Se]c1ccccc1 [3b, 3 b]
6 | 49.3 µM | 7.9 µM |  | COc1cccc(NC(=O)[Se]c2ccccc2)c1 [3d, 3 d]
7 | 30.8 µM | 9.2 µM |  | O=C(Nc1ccccc1F)[Se]c1ccccc1 [3e, 3 e]
8 | 15.3 µM | 9.4 µM |  | O=C(Nc1ccc(F)cc1)[Se]c1ccccc1 [3f, 3 f]
9 | 42.5 µM | 13.1 µM |  | O=C(Nc1ccc(Cl)cc1)[Se]c1ccccc1 [3g, 3 g]
10 | 13.8 µM | 8.6 µM |  | O=C(Nc1ccc(Br)cc1)[Se]c1ccccc1 [3h, 3 h]
11 | 8.8 µM | 40.4 µM |  | O=C(NCc1ccco1)[Se]c1ccccc1 [3i, 3 i]
12 | 9.8 µM | 6.8 µM |  | NC(=O)[Se]c1ccccc1 [3j, 1‐(phenylselanyl)formamide]
13 | 38.6 µM | 11.6 µM |  | Cc1ccc([Se]C(=O)Nc2ccc(Br)cc2)cc1 [3k, 3 k]
14 | 13.4 µM | 8 µM |  | Cc1ccccc1[Se]C(=O)Nc1ccc(Br)cc1 [3l, 3 l]
15 | 92.1 µM | 87.4 µM |  | CCCCCCCCCCCC[Se]C(=O)Nc1ccc(Br)cc1 [3m, 3 m]
16 | 90.3 µM | 85.2 µM |  | CCCCCCCCCCCC[Se]C(N)=O [3n, 3 n]
17 | 85 µM | 39.9 µM |  | O=C(Nc1ccc(Br)cc1)[Se]Cc1ccccc1 [3p, 3 p]
18 | > 100 µM |  | > 100 µM | Cc1ccc(S(=O)(=O)N[C@@H](C)C[Se]C(=O)Nc2cc(C)cc(C)c2)cc1 [3u, 3 u]

Row | Compound | Ki (hCA I) | Ki (hCA II [1]) | Ki (hCA II [2])
19 | Cc1cc(C)cc(NC(=O)[Se]c2ccccc2)c1 [3a, 3 a] | 49.5 µM | 5.3 µM | 
20 | Cc1ccc(NC(=O)[Se]c2ccccc2)cc1 [3c, 3 c] | 25.9 µM | 8.4 µM | 
